# Measurements from the supplement of paper PMC11061612.
# Legend:
# Experiment in all cases: combination Emax (second highest fraction inhibited in the dose matrix, 72 h); higher = more inhibition; extreme values may be limits of the assay
# [1] = system: 639-V (Bladder Carcinoma)
# How it was run: (§1)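 Cell lines in DMEM/F12 or RPMI with 10% FBS were plated in 1536-well plates, held 24 hours at 37°C, 5% CO2, then given two-drug dose matrices for 72 hours (DMSO typically 0.2%). Viability was read by CellTiter-Glo 2.0 luminescence and scaled as inhibition from 0 (vehicle wells) to 1 (blank wells). Combination Emax is the second-highest inhibition in the matrix; Bliss excess is observed combination effect minus expected EA + EB − EA·EB, EA and EB being single-agent effects.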
# [2] = system: SU-DHL-6 (B-Cell Non-Hodgkin's Lymphoma)
# How it was run: as §1
# [3] = system: HARA (Squamous Cell Lung Carcinoma)
# How it was run: as §1
# [4] = system: CAL-51 (Breast Carcinoma)
# How it was run: as §1
# [5] = system: LoVo (Colorectal Carcinoma)
# How it was run: as §1
# [6] = system: MHH-PREB-1 (B-Cell Non-Hodgkin's Lymphoma)
# How it was run: as §1
# [7] = system: HO-1-u-1 (Oral Cavity Carcinoma)
# How it was run: as §1
# [8] = system: OC-314 (Ovarian Carcinoma)
# How it was run: as §1
# [9] = system: MDA-MB-468 (Breast Carcinoma)
# How it was run: as §1
# [10] = system: LB771-HNC (Head and Neck Carcinoma)
# How it was run: as §1
# COLO-829 (Melanoma) = system: COLO-829 (Melanoma)
# How it was run: as §1
# SH-4 (Melanoma) = system: SH-4 (Melanoma)
# How it was run: as §1
# Mewo (Melanoma) = system: Mewo (Melanoma)
# How it was run: as §1
# [11] = system: Hs-633T (Other Solid Carcinomas)
# How it was run: as §1
# HMV-II (Melanoma) = system: HMV-II (Melanoma)
# How it was run: as §1
# [12] = system: KARPAS-231 (B-Cell Non-Hodgkin's Lymphoma)
# How it was run: as §1
# [13] = system: SW1271 (Small Cell Lung Carcinoma)
# How it was run: as §1
# [14] = system: SW1116 (Colorectal Carcinoma)
# How it was run: as §1
# [15] = system: EN (Endometrial Carcinoma)
# How it was run: as §1
# [16] = system: CAPAN-1 (Pancreatic Carcinoma)
# How it was run: as §1
SMILES,combination Emax [1],combination Emax [2],combination Emax [3],combination Emax [4],combination Emax [5],combination Emax [6],combination Emax [7],combination Emax [8],combination Emax [9],combination Emax [10],combination Emax (COLO-829 (Melanoma)),combination Emax (SH-4 (Melanoma)),combination Emax (Mewo (Melanoma)),combination Emax [11],combination Emax (HMV-II (Melanoma)),combination Emax [12],combination Emax [13],combination Emax [14],combination Emax [15],combination Emax [16]
"COc1cccc(OCCCN)c1-c1cc(Nc2cnc(C#N)cn2)n[nH]1 [Prexasertib] + CN(C)CCCOc1ccc(-c2ccc3ncc4c(c3c2)n(C2CCOCC2)c(=O)n4C)cn1 [AZD0156] (first compound max 1 µM, 7x7, partner max 1 µM)",0.446,0.642,0.986,0.946,0.896,0.974,0.975,0.962,0.492,0.587,0.385,0.807,0.531,0.908,0.517,0.979,0.678,0.516,0.762,0.611
"COc1cccc(OCCCN)c1-c1cc(Nc2cnc(C#N)cn2)n[nH]1 [Prexasertib] + C[C@@H]1COCCN1C2=NC(=NC(=C2)C3(CC3)[S@](=N)(=O)C)C4=C5C=CNC5=NC=C4 [AZD6738] (first compound max 1 µM, 7x7, partner max 10 µM)",0.397,0.621,0.943,0.929,0.869,0.949,0.923,0.934,0.547,0.61,0.335,0.63,0.479,0.936,0.565,0.979,0.719,0.615,0.726,0.527
"COc1cccc(OCCCN)c1-c1cc(Nc2cnc(C#N)cn2)n[nH]1 [Prexasertib] + Cc1cc2ncnn2cc1Nc1ncc2c(n1)n(C1CCOCC1)c(=O)n2C [AZD7648] (first compound max 1 µM, 7x7, partner max 10 µM)",0.362,0.629,0.953,0.916,0.879,0.947,0.993,0.946,0.533,0.596,0.398,0.709,0.516,0.948,0.525,0.984,0.678,0.463,0.756,0.585
"COc1cccc(OCCCN)c1-c1cc(Nc2cnc(C#N)cn2)n[nH]1 [Prexasertib] + O=C(c1cc(Cc2n[nH]c(=O)c3ccccc23)ccc1F)N1CCN(C(=O)C2CC2)CC1 [Olaparib] (first compound max 1 µM, 7x7, partner max 10 µM)",0.868,0.653,0.964,0.86,0.798,0.866,0.936,0.971,0.603,0.568,0.281,0.611,0.505,0.854,0.533,0.974,0.686,0.565,0.726,0.595
"COc1cc2c(cc1OCCCCCOc1cc3c(cc1OC)C(=O)N1C=C(C)C[C@H]1C=N3)N=C[C@@H]1CC(C)=CN1C2=O [SG3199] + O=C(c1cc(Cc2n[nH]c(=O)c3ccccc23)ccc1F)N1CCN(C(=O)C2CC2)CC1 [Olaparib] (first compound max 0.001 µM, 7x7, partner max 10 µM)",0.201,0.171,0.174,0.202,0.14,0.13,0.15,0.205,0.231,0.181,0.129,0.181,0.106,0.142,0.118,0.262,0.18,0.0344,0.148,0.198
"CCc1c2c(nc3ccc(O)cc13)-c1cc3c(c(=O)n1C2)COC(=O)[C@]3(O)CC [SN-38] + CN(C)CCCOc1ccc(-c2ccc3ncc4c(c3c2)n(C2CCOCC2)c(=O)n4C)cn1 [AZD0156] (first compound max 0.3 µM, 7x7, partner max 1 µM)",1,0.987,0.768,0.728,0.727,0.701,0.676,1,0.735,0.0261,0.497,0.27,0.248,0.838,0.587,1,0.707,0.199,0.157,0.781
"CC(=O)Nc1cccc(-n2c(=O)n(C3CC3)c(=O)c3c(Nc4ccc(I)cc4F)n(C)c(=O)c(C)c32)c1 [Trametinib] + Cc1nc(-c2cn3c(n2)-c2ccc(-c4cnn(C(C)(C)C(N)=O)c4)cc2OCC3)n(C(C)C)n1 [Taselisib] (first compound max 1 µM, 7x7, partner max 10 µM)",0.718,1,0.818,0.886,0.708,0.271,0.987,0.707,0.799,0.895,0.942,0.999,0.692,0.917,0.926,0.149,0.653,0.866,0.681,0.774
"CC1(C)CCC(CN2CCN(c3ccc(C(=O)NS(=O)(=O)c4ccc(NCC5CCOCC5)c([N+](=O)[O-])c4)c(Oc4cnc5[nH]ccc5c4)c3)CC2)=C(c2ccc(Cl)cc2)C1 [Venetoclax] + C1CN(CCC1(C(=O)N[C@@H](CCO)C2=CC=C(C=C2)Cl)N)C3=NC=NC4=C3C=CN4 [Capivasertib] (first compound max 1 µM, 7x7, partner max 3 µM)",0.283,0.995,0.645,0.487,0.454,0.176,0.719,0.316,0.511,0.248,0.16,0.208,0.533,0.177,0.236,0.796,0.262,0.0942,0.554,0.184
"CC1(C)CCC(CN2CCN(c3ccc(C(=O)NS(=O)(=O)c4ccc(NCC5CCOCC5)c([N+](=O)[O-])c4)c(Oc4cnc5[nH]ccc5c4)c3)CC2)=C(c2ccc(Cl)cc2)C1 [Venetoclax] + C=CCn1c(=O)c2cnc(Nc3ccc(N4CCN(C)CC4)cc3)nc2n1-c1cccc(C(C)(C)O)n1 [AZD1775] (first compound max 1 µM, partner max 1 µM)",0.428,0.941,0.899,0.851,0.741,0.846,0.949,0.933,0.521,0.518,0.235,0.573,0.621,0.719,0.484,1,0.552,0.23,0.653,0.45
"CC1(C)CCC(CN2CCN(c3ccc(C(=O)NS(=O)(=O)c4ccc(NCC5CCOCC5)c([N+](=O)[O-])c4)c(Oc4cnc5[nH]ccc5c4)c3)CC2)=C(c2ccc(Cl)cc2)C1 [Venetoclax] + CCN(CCO)CCCOc1ccc2c(Nc3cc(CC(=O)Nc4cccc(F)c4)[nH]n3)ncnc2c1 [AZD2811] (first compound max 1 µM, 7x7, partner max 1 µM)",0.248,0.877,0.714,0.349,0.197,0.187,0.324,0.419,0.624,0.186,0.127,0.241,0.434,0.217,0.263,1,0.174,0.202,0.399,0.206
"CC1(C)CCC(CN2CCN(c3ccc(C(=O)NS(=O)(=O)c4ccc(NCC5CCOCC5)c([N+](=O)[O-])c4)c(Oc4cnc5[nH]ccc5c4)c3)CC2)=C(c2ccc(Cl)cc2)C1 [Venetoclax] + CN(C)CCCOc1ccc(-c2ccc3ncc4c(c3c2)n(C2CCOCC2)c(=O)n4C)cn1 [AZD0156] (first compound max 1 µM, 7x7, partner max 1 µM)",0.202,0.904,0.651,0.242,0.283,0.14,0.413,0.316,0.377,0.124,0.21,0.279,0.547,0.266,0.289,0.816,0.207,0.103,0.426,0.184
"CC1(C)CCC(CN2CCN(c3ccc(C(=O)NS(=O)(=O)c4ccc(NCC5CCOCC5)c([N+](=O)[O-])c4)c(Oc4cnc5[nH]ccc5c4)c3)CC2)=C(c2ccc(Cl)cc2)C1 [Venetoclax] + COc1cc(Nc2ncc3c(n2)-c2ccc(Cl)cc2C(c2c(F)cccc2OC)=NC3)ccc1C(=O)O [Alisertib] (first compound max 1 µM, 7x7, partner max 10 µM)",0.752,0.96,0.787,0.574,0.48,0.199,0.611,0.504,0.748,0.697,0.252,0.146,0.416,0.44,0.363,1,0.326,0.341,0.463,0.28
